PMC7589233 (The Journal of Physiology, 2020)

Legend:
TRPV1 [1] = molecular target: T1, TRPV1 (Homo sapiens, UniProt Q8NER1); assay: whole-cell patch clamp, agonist current at […]; type: cell-based
TRPV1 [2] = molecular target: T1, TRPV1; type: cell-based

T1 sequence (Q8NER1 whole entry): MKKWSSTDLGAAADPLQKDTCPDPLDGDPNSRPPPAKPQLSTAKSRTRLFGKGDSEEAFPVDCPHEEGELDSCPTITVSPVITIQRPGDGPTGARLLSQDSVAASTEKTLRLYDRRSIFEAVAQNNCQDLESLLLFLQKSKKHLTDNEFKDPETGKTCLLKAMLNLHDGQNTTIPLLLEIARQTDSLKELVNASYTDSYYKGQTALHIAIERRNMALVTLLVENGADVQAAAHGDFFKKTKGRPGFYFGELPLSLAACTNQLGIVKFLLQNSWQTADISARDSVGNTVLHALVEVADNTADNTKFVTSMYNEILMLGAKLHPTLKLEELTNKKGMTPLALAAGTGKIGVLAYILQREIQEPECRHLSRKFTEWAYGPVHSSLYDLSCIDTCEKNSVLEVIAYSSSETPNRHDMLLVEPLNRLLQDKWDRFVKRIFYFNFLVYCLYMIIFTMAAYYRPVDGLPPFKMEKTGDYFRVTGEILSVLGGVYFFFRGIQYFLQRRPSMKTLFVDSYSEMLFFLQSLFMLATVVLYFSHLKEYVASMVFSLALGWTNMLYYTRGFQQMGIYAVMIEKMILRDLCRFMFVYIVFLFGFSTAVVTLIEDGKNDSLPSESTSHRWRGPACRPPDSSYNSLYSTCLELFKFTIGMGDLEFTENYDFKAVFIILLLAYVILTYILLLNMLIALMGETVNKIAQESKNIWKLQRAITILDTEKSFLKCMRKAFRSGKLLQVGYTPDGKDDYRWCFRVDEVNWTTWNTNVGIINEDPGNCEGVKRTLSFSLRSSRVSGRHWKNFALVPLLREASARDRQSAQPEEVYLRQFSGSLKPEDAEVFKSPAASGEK

In the case of CCCCCCCC/C=C\CCCCCCCC(=O)NCCc1ccc(O)c(O)c1 [OLDA, N-oleoyldopamine], the “whole-cell patch clamp, agonist current at 1 μM” value (TRPV1 [1]) is reported as “OLDA elicited whole‐cell currents that displayed similar kinetics to that observed with capsaicin”.

Work on C=C1CC[C@H](O)C/C1=C/C=C1\CCC[C@]2(C)[C@@H]([C@H](C)CCCC(C)(C)O)CC[C@@H]12 [25OHD, 25-Hydroxyvitamin D] yielded an IC50 (TRPV1 [2]) of 34.3 ± 0.2 nM.
